Source: patent US8030346B2, “Heterocyclic quinolone derivatives that inhibit prolyl hydroxylase activity” (Amgen Inc., priority 2007, dated 2011)

How the values were obtained:
HIF PHD2 = HIF PHD2 (Homo sapiens, UniProt Q9GZT9); test: PHD2 inhibition assay (TR-FRET, VCB-Eu detection of hydroxylated P564-HIF1α peptide); format: biochemical; conditions: Table of PHD2 IC50 values of Example Compounds
Method: Inhibition of HIF PHD2 activity was quantified utilizing the TR-FRET technology. HIF PHD2 catalyzes a hydroxyl modification on the proline residue of the P564-HIF1α peptide substrate (Biotin-[…] (SEQ ID NO: 7)) resulting in recognition and binding of the europylated Von Hippel-Lindau protein (pVHL), elongin B and elongin C heterotrimeric (VCB-Eu) complex.
The PHD2 inhibition assay was executed by addition of freshly dissolved FeCl2 to 178.57 μM (100 μM final concentration) in PHD2 Reaction Buffer containing 30 mM MES, pH 6, 10 mM NaCl, 0.25% Brij-35, 0.01% BSA, and 1% DMSO. 28 μL of the iron solution and 2 μL of inhibitor compounds serially diluted in 100% DMSO (5% DMSO final) were added to black polypropylene 96-well microtiter plates. To that, 10 μL of 10 nM PHD2 (2 nM final) was added to all wells of the plate except for the 8 wells of column 12 (LO control), and allowed to incubate at room temperature on the shaker for one hour. Column 6 was the HI control containing PHD2 enzyme and 5% DMSO vehicle, but no inhibitor compound. To initiate the PHD2 enzymatic reaction, 10 μL of a solution containing 500 nM P564-HIF1α peptide (100 nM final), 10 mM ascorbic acid (2 mM final), and 1.25 μM 2-oxoglutarate (α-ketoglutarate; 0.25 μM final) in PHD2 Reaction Buffer was added to all wells of the plate and allowed to incubate on the shaker at room temperature for one hour.
The reaction was terminated by addition of 25 μL TR-FRET Buffer (50 mM TRIS-HCl, pH 9, 100 mM NaCl, 0.05% BSA, and 0.5% Tween-20) containing 150 mM succinate (product inhibitor; 50 mM final), 75 nM streptavidin-APC (25 nM final), and 7.5 nM VCB-Eu (2.5 nM final). The TR-FRET detection reagents were placed on a shaker for 1 hour to reach binding equilibrium before reading on the Discovery platform (PerkinElmer). Europium is excited at 315 nm and phosphoresces at 615 nm with a large Stoke's shift. APC, in turn, emits at 655 nm upon excitation at 615 nm. The TR-FRET signal is measured as the ratio of the APC 655 nm signal divided by the internal europium reference 615 nm emission signal.
The POC (percentage of control) was determined by comparing the signal from hydroxylated peptide substrate in the enzyme reaction containing inhibitor compound with that from PHD2 enzyme with DMSO vehicle alone (HI control), and no enzyme (LO control). POC was calculated using the formula: % control (POC)=(cpd−average LO)/(average HI−average LO)*100. Data (consisting of POC and inhibitor concentration in […]) was fitted to a 4-parameter equation (y=A+((B−A)/(1+((x/C)^D))), where A is the minimum y (POC) value, B is the maximum y (POC), C is the x (cpd concentration) at the point of inflection and D is the slope factor) using a Levenburg-Marquardt non-linear regression algorithm.

[1] = molecular target: T1, Collagen Prolyl Hydroxylase II (CPH2) (Homo sapiens, UniProt O15460); test: Collagen prolyl hydroxylase II activity by radiometric HPLC measurement of 2-oxoglutarate conversion to succinic acid; format: biochemical
T1 construct: made in house; host or cells: Trichoplusia ni insect cells (baculovirus, pFastBac1)
T1 sequence (O15460 22-533 isoform O15460-2 limits assumed): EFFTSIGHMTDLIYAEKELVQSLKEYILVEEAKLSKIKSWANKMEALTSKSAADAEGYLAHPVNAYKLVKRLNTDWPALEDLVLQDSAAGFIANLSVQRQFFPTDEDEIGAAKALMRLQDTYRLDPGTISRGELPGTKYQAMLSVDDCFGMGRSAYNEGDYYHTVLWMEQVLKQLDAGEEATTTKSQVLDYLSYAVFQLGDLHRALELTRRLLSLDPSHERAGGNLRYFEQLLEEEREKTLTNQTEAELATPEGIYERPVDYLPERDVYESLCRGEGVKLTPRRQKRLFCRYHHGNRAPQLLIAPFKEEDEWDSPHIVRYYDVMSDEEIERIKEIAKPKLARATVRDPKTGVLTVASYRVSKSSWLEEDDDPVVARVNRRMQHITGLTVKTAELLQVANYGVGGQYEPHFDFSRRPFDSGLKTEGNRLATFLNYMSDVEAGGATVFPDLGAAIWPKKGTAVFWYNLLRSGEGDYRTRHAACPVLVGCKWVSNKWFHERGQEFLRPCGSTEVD
T1 sequence (P07237 18-508 partner): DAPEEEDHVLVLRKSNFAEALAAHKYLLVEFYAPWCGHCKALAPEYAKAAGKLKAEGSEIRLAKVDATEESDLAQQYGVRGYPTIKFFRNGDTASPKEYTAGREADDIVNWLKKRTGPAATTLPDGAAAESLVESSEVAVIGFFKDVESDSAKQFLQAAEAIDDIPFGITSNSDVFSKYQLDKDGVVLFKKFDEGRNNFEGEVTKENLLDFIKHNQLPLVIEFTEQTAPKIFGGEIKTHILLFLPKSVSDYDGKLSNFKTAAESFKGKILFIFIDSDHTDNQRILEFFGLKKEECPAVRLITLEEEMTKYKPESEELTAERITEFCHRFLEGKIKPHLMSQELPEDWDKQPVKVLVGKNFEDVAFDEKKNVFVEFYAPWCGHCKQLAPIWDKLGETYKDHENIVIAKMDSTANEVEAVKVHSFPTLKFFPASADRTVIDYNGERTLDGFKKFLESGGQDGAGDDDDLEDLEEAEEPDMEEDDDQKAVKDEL
Method: Assay Buffer consisted of Tris-HCl, pH 7.5, 0.2 mM DTT, and 0.5 mg/ml catalase. PPG10 peptide was dissolved in 0.25% acetic acid and denatured by boiling for 5 minutes then placed on ice for 5 minutes. The denatured PPG10 was then pre-mixed with 1 M ascorbate, prepared in water, and the mixture diluted with Assay Buffer to yield a working solution of 5× peptide and ascorbate. FeSO4 was freshly dissolved in water and diluted to a 2.8× concentration in Assay Buffer. Enzyme stocks were diluted to a 5× concentration in Assay Buffer. Example compounds plus FeSO4 solution were mixed, followed by addition of 5× enzyme solutions. After 10 minutes gentle mixing at room temperature, the 5× peptide solution was added. […] Final concentrations in the assay were: 50 mM Tris-HCl, pH 7.5, 0.2 mM DTT, 0.5 mg/mL catalase, 10 μM FeSO4, 100 μM PPG10, 50 μM 5-[^14C]-2-oxoglutarate (23-37 cpm/pmol), 1 mM ascorbate, and 4% DMSO. Reactions were gently mixed at room temperature for 1 hour and terminated by addition of an equal volume of 0.02 N H2SO4.
A portion of each terminated reaction was auto-injected into a Polypore H column (PerkinElmer, Waltham, Mass.) at a rate of 0.3 mL/min with 0.01 NH2SO4 as the mobile phase. The HPLC method employed exploits the difference in pKa of the 2-OG and SA carboxylates to chromatographically separate substrate from product at low pH on ion-exchange resin, as described by Cunliffe, et al (Biochem J., 240, 617-619 (1986)) and Kaule and Gunzler (Anal. Biochem., 184, 291-297 (1990)). An Agilent 1100 HPLC System with dual quaternary pumps, column switching valve, and dual columns was used to resolve product from substrate. The Agilent 1100 Multiple Wavelength Detector indicated UV absorption of the substrate and product peaks at 210 nm and a Beta-RAM Model 2 radiation detector with In-Flow 2:1 scintillation cocktail (IN/US Systems Inc.) enabled quantitation of the 2 radioactive peaks. Laura Lite software (IN/US, Tampa, Fla.) was used to collect and analyze radiometric data. […] To standardize across studies, 2-OG conversion was normalized to percent of control (POC) values using reactions that lacked enzyme or inhibitor as low and high controls, respectively. POC data was fitted to the 4-parameter logistic model (A+((B−A)/(1+((x/C)^D)))) using ActivityBase (IDBS, Alameda Calif.) where A is the minimum POC value, B is the maximum POC value, D is the slope factor, and C is compound concentration at the inflection point (IC50, micromolar).

Sequence of HIF PHD2 (Q9GZT9 whole entry): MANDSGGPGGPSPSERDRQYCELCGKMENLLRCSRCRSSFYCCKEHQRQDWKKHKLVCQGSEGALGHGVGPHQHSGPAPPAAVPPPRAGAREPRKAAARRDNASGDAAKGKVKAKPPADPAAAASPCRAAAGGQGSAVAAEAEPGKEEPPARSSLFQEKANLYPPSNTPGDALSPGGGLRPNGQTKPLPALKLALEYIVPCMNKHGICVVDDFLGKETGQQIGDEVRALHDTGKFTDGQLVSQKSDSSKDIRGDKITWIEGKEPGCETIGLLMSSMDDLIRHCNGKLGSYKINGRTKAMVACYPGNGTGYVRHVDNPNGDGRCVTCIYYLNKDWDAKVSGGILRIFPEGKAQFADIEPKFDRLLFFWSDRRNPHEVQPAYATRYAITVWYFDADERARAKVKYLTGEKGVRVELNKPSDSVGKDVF

| Structure (SMILES) | IC50 (HIF PHD2) | IC50 [1] |
| --- | --- | --- |
| Cn1c(=O)c(C(=O)NCC(=O)O)c(O)c2sc(-c3ccc(Cl)cc3)nc21 [Example 1, N-((2-(4-chlorophenyl)-7-hydroxy-4-methyl-5-oxo-4,5-dihydro[1,3]thiazolo[4,5-b]pyridin-6-yl)carbonyl)glycine] | 47 nM | – |
| Cn1c(=O)c(C(=O)NCC(=O)O)c(O)c2sc(Br)cc21 [Example 6, 2-(2-bromo-7-hydroxy-4-methyl-5-oxo-4,5-dihydrothieno[3,2-b]pyridine-6-carboxamido)acetic acid] | 7.3 nM | 30 nM |
| Cn1c(=O)c(C(=O)NCC(=O)O)c(O)c2sc(C(F)(F)F)c(-c3ccccc3)c21 [Example 8, 2-(7-hydroxy-4-methyl-5-oxo-3-phenyl-2-(trifluoromethyl)-4,5-dihydrothieno[3,2-b]pyridine-6-carboxamido)acetic acid] | 18 nM | – |
| Cn1c(=O)c(C(=O)NCC(=O)O)c(O)c2sc(-c3ccc(F)cc3)cc21 [Example 11, 2-(2-(4-fluorophenyl)-7-hydroxy-4-methyl-5-oxo-4,5-dihydrothieno[3,2-b]pyridine-6-carboxamido)acetic acid] | 15 nM | – |
| Cn1c(=O)c(C(=O)NCC(=O)O)c(O)c2sc(-c3ccc(Cl)cc3)cc21 [Example 5, 2-(2-(4-chlorophenyl)-7-hydroxy-4-methyl-5-oxo-4,5-dihydrothieno[3,2-b]pyridine-6-carboxamido)acetic acid] | 97 nM | – |
| Cn1c(=O)c(C(=O)NCC(=O)O)c(O)c2sc3ccccc3c21 [Example 9, N-((4-hydroxy-1-methyl-2-oxo-1,2-dihydro[1]benzothieno[3,2-b]pyridin-3-yl)carbonyl)glycine] | 15 nM | – |
| Cn1c(=O)c(C(=O)NCC(=O)O)c(O)c2sc(-c3ccccc3)cc21 [Example 15, 2-(7-hydroxy-4-methyl-5-oxo-2-phenyl-4,5-dihydrothieno[3,2-b]pyridine-6-carboxamido)acetic acid] | 21 nM | – |
| C[C@H](NC(=O)c1c(O)c2sc3ccccc3c2n(C)c1=O)C(=O)O [Example 10, N-((4-hydroxy-1-methyl-2-oxo-1,2-dihydro[1]benzothieno[3,2-b]pyridin-3-yl)carbonyl)-L-alanine] | 109 nM | – |
| Cc1nc2c(s1)c(O)c(C(=O)NCC(=O)O)c(=O)n2C [Example 2, N-((7-hydroxy-2,4-dimethyl-5-oxo-4,5-dihydro[1,3]thiazolo[4,5-b]pyridin-6-yl)carbonyl)glycine] | 20 nM | – |
| Cn1c(=O)c(C(=O)CCC(=O)O)c(O)c2sccc21 [Example 18, 4-(7-hydroxy-4-methyl-5-oxo-4,5-dihydrothieno[3,2-b]pyridin-6-yl)-4-oxobutanoic acid] | 3 nM | 34300 nM |
| Cc1csc2c(O)c(C(=O)N[C@@H](C)C(=O)O)c(=O)n(C)c12 [Example 7, (S)-2-(7-hydroxy-3,4-dimethyl-5-oxo-4,5-dihydrothieno[3,2-b]pyridine-6-carboxamido)propanoic acid] | 122 nM | – |
| Cn1c(=O)c(C(=O)NCC(=O)O)c(O)c2sccc21 [Example 3, 2-(7-hydroxy-4-methyl-5-oxo-4,5-dihydrothieno[3,2-b]pyridine-6-carboxamido)acetic acid] | 75 nM | 345 nM |
| Cc1c(Br)sc2c(O)c(C(=O)NCC(=O)O)c(=O)n(C)c12 [Example 16, 2-(2-bromo-7-hydroxy-3,4-dimethyl-5-oxo-4,5-dihydrothieno[3,2-b]pyridine-6-carboxamido)acetic acid] | 20 nM | – |
| Cc1ncccc1-c1cc2c(s1)c(O)c(C(=O)NCC(=O)O)c(=O)n2C [Example 13, 2-(7-hydroxy-4-methyl-2-(2-methylpyridin-3-yl)-5-oxo-4,5-dihydrothieno[3,2-b]pyridine-6-carboxamido)acetic acid] | 16 nM | – |
| Cc1csc2c(O)c(C(=O)NCC(=O)O)c(=O)n(C)c12 [Example 4, 2-(7-hydroxy-3,4-dimethyl-5-oxo-4,5-dihydrothieno[3,2-b]pyridine-6-carboxamido)acetic acid] | 24 nM | – |
| Cn1c(=O)c(C(=O)CCC(=O)O)c(O)c2sc(Br)cc21 [Example 17, 4-(2-bromo-7-hydroxy-4-methyl-5-oxo-4,5-dihydrothieno[3,2-b]pyridin-6-yl)-4-oxobutanoic acid] | 64 nM | 3780 nM |
| Cc1ccsc1-c1cc2c(s1)c(O)c(C(=O)NCC(=O)O)c(=O)n2C [Example 14, 2-(7-hydroxy-4-methyl-2-(3-methylthiophen-2-yl)-5-oxo-4,5-dihydrothieno[3,2-b]pyridine-6-carboxamido)acetic acid] | 78 nM | – |
| Cn1c(=O)c(C(=O)NCC(=O)O)c(O)c2sc(-c3cncnc3)cc21 [Example 12, 2-(7-hydroxy-4-methyl-5-oxo-2-(pyrimidin-5-yl)-4,5-dihydrothieno[3,2-b]pyridine-6-carboxamido)acetic acid] | 8.3 nM | – |
